Earlier results as cited in patent publication US8557989B2, “Electrochemical affinity biosensor system and methods” (priority 2003, dated 2013).

Target: glucose oxidase (Aspergillus niger, UniProt P13006)
Details: with glucose oxidase

glucose oxidase, sequence (P13006 17-605): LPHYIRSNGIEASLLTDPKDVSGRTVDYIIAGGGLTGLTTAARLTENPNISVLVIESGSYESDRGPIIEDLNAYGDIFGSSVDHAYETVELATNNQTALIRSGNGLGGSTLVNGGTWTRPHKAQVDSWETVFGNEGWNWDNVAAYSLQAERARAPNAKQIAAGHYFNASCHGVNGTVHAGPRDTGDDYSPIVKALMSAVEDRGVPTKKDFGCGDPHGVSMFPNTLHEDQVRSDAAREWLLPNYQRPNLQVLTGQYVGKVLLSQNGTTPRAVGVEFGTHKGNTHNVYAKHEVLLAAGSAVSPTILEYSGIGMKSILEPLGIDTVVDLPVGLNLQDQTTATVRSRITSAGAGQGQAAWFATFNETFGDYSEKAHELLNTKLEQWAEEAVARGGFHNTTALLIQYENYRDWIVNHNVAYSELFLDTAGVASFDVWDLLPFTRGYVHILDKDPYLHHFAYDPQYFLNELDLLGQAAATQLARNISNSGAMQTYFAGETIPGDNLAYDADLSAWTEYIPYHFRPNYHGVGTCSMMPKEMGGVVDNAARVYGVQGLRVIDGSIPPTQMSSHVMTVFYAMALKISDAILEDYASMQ

For “bis(2,2′-bipyridyl) imidazole chloro osmium (III) dichloride [osmium free mediator]”, the “mediation kinetics, times faster than ferricyanide” value is listed as “about 500 times”.
